Results as given in ChEMBL document CHEMBL1137293, “Discovery of oxadiazoyl tertiary carbinamine inhibitors of beta-secretase (BACE-1)” (J Med Chem, 2006).

Biological target: Beta-secretase 1 (Homo sapiens, UniProt P56817)
Assay: Inhibition of BACE1

Chain of Beta-secretase 1 (P56817 whole entry): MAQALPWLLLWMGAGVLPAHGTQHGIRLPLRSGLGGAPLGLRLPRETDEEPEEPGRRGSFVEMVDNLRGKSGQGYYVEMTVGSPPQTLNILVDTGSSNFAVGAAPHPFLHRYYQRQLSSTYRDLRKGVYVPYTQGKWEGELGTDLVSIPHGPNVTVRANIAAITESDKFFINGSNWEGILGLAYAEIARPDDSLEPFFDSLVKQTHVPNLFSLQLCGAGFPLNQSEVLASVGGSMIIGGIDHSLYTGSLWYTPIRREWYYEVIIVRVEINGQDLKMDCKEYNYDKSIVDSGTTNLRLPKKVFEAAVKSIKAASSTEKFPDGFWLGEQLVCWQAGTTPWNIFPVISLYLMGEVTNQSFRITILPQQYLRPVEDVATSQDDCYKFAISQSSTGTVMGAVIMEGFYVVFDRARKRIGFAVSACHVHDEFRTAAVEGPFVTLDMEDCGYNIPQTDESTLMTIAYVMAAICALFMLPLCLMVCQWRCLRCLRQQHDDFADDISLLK

SMILES | IC50 [µM]
C[C@@H](NC(=O)c1cc(C(=O)NC(CO)(CO)Cc2ccccc2)cc(N(C)S(C)(=O)=O)c1)c1ccc(F)cc1 | 2.7
C[C@@H](NC(=O)c1cc(COC[C@@](N)(CO)Cc2ccccc2)cc(N(C)S(C)(=O)=O)c1)c1ccc(F)cc1 | 1.37
C[C@@H](NC(=O)c1cc(COC(=O)[C@](C)(N)Cc2ccccc2)cc(N(C)S(C)(=O)=O)c1)c1ccc(F)cc1 | 0.027

Results, then the compound that gave them:

IC50 [µM] | SMILES
0.43 | C[C@@H](NC(=O)c1cc(COC[C@](C)(N)Cc2ccccc2)cc(N(C)S(C)(=O)=O)c1)c1ccc(F)cc1
12.5 | C[C@@H](NC(=O)c1cc(C2=NC(CO)(Cc3ccccc3)CO2)cc(N(C)S(C)(=O)=O)c1)c1ccc(F)cc1 (stereo not given in full)
